IC50 data for 2 compounds are collected here from paper PMC7663103, “Homo-Tris-Nitrones Derived from α-Phenyl-N-tert-butylnitrone: Synthesis, Neuroprotection and Antioxidant Properties” (International Journal of Molecular Sciences, 2020).

The target in the test is T1, soybean lipoxygenase (Glycine max, UniProt P08170).
T1 construct: gene LOX1.1
T1 sequence (P08170 1-839): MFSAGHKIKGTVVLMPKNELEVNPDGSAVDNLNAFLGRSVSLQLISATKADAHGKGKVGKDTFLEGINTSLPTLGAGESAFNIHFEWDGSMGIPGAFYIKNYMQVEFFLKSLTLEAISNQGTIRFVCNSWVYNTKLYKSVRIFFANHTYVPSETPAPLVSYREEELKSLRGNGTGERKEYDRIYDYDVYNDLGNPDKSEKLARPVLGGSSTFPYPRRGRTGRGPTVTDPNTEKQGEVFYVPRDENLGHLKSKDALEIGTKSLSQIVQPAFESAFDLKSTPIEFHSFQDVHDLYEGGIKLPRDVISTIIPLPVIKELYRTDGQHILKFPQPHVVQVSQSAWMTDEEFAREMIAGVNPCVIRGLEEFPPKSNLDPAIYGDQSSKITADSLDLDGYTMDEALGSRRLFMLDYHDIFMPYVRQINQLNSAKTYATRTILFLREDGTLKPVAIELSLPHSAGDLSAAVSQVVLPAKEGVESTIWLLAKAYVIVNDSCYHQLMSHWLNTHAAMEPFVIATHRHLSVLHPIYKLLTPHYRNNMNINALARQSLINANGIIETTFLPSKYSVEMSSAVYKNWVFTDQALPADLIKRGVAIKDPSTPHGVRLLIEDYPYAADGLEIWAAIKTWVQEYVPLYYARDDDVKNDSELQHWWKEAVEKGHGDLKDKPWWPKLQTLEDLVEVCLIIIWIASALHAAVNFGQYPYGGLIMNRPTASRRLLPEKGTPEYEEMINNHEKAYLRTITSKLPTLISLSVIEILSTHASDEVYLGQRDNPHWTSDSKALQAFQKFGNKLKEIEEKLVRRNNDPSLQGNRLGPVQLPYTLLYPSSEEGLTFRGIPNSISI
Description: UV assay of sodium linoleate conversion to 13-hydroperoxylinoleic acid at […] nm. It counts as biochemical. Particulars: read-out: LOX Inhibition (% or IC50 [μM]) (±SEM).

With `C/[N+]([O-])=C/c1cc(/C=[N+](/C)[O-])cc(/C=[N+](/C)[O-])c1` [HTN1, (1. Z,1′Z,1″Z)-1,1′,1″-(Benzene-1,3,5-triyl)tris(N-methylmethanimineoxide)], the IC50 came out at 100 ± 1.1 µM.
With `[O-]/[N+](=C\c1cc(/C=[N+](\[O-])Cc2ccccc2)cc(/C=[N+](\[O-])Cc2ccccc2)c1)Cc1ccccc1` [HTN3, (1. Z,1′Z,1″Z)-1,1′,1″-(Benzene-1,3,5-triyl)tris(N-benzylmethanimineoxide)], the IC50 is 70 ± 2.6 µM.

For orientation: IC50 means the midpoint of a concentration-inhibition curve.
